According to PubChem BioAssay AID220 (DTP/NCI, 2004):
Where “and” joins values, the source holds several entries; their conditions need not be identical. Identical values can stand only once. Results filed as inconclusive are left out. Starred links: 1 amine or outer side, 2 acyl side, 3 side chain; linkers in the order of their positions; H or OH if unused. Positions of bridges follow the written chain, without caps; N, C: chain ends. Non-standard residues stand in square brackets, D forms with d. Residues, ends and D or L forms follow the SMILES beside them. Chains are numbered I, II in the order given. Actinocin(1to9) = Cc1c2oc3c(C)ccc(C(=O)[*:2])c3nc-2c(C(=O)[*:1])c(N)c1=O; NMeV = CN[CH](C(=O)O)C(C)C; Aze = O=C(O)[CH]1CCN1; Sar = CNCC(=O)O

System: CD8F1 mice, subcutaneous mammary adenocarcinoma, T/C%
Experiment: NCI In Vivo Anticancer Drug Screen. Data for tumor model Mammary Adenocarcinoma CD8F1 (subcutaneous) in CD8F1
Settings: higher = larger tumour
Procedure, shortened: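 Ratio of treated to vehicle-control outcome, based on either survival or tumor size, in mice bearing transplantable tumors given the test compound.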

[1] = endpoint: median tumor weight (est.), dose: 12.5 mg/kg/injection, schedule: Q07DX005 (ip), vehicle: saline with Tween-80
[2] = endpoint: median tumor weight (est.), dose: 25.0 mg/kg/injection, schedule: Q07DX005 (ip), vehicle: saline with Tween-80
[3] = endpoint: median tumor weight (est.), dose: 25.0 mg/kg/injection, schedule: Q07DX005 (ip), vehicle: saline
[4] = endpoint: median tumor weight (est.), dose: 100.0 mg/kg/injection, schedule: Q07DX005 (ip), vehicle: saline with Tween-80
[5] = endpoint: median tumor weight (est.), dose: 25.0 mg/kg/injection, schedule: Q07DX005 (ip), vehicle: suspension in saline
[6] = endpoint: median tumor weight (est.), dose: 6.25 mg/kg/injection, schedule: Q07DX005 (ip), vehicle: Klucel (hydroxypropylcellulose) (HPC)
[7] = endpoint: median tumor weight (est.), dose: 12.5 mg/kg/injection, schedule: Q07DX005 (ip), vehicle: Klucel (hydroxypropylcellulose) (HPC)
[8] = endpoint: median tumor weight (est.), dose: 25.0 mg/kg/injection, schedule: Q07DX005 (ip), vehicle: Klucel (hydroxypropylcellulose) (HPC)

Structure (SMILES): CN1CCN(CCCN2c3ccccc3Sc3ccc(C(F)(F)F)cc32)CC1
- T/C (endpoint: median tumor weight (est.), dose: 6.25 mg/kg/injection, schedule: Q07DX005 (ip), vehicle: saline with Tween-80): 178 % of control
- T/C (endpoint: median tumor weight (est.), dose: 6.25 mg/kg/injection, schedule: Q07DX005 (ip), vehicle: saline): 183 % of control
- T/C [1]: 202 % of control
- T/C (endpoint: median tumor weight (est.), dose: 12.5 mg/kg/injection, schedule: Q07DX005 (ip), vehicle: saline): 97 % of control
- T/C [2]: 65 % of control
- T/C [3]: 108 % of control
- T/C (endpoint: median tumor weight (est.), dose: 50.0 mg/kg/injection, schedule: Q07DX005 (ip), vehicle: saline): 162 % of control
- T/C [4]: 95 % of control
- T/C (endpoint: median tumor weight (est.), dose: 100.0 mg/kg/injection, schedule: Q07DX005 (ip), vehicle: saline): 70 % of control

Structure (SMILES): CC(=O)OCC1OC(n2ccc(N)nc2=O)C(OC(C)=O)C1OC(C)=O (configuration not stated)
- T/C [5]: 159 % of control
- T/C (endpoint: median tumor weight (est.), dose: 50.0 mg/kg/injection, schedule: Q07DX005 (ip), vehicle: suspension in saline): 70 % of control
- T/C (endpoint: median tumor weight (est.), dose: 100.0 mg/kg/injection, schedule: Q07DX005 (ip), vehicle: suspension in saline): 87 % of control
- T/C (endpoint: median tumor weight (est.), dose: 200.0 mg/kg/injection, schedule: Q07DX005 (ip), vehicle: suspension in saline): 88 % of control
- T/C (endpoint: median tumor weight (est.), dose: 400.0 mg/kg/injection, schedule: Q07DX005 (ip), vehicle: suspension in saline): 96 % of control
- T/C (endpoint: median tumor weight (est.), dose: 800.0 mg/kg/injection, schedule: Q07DX005 (ip), vehicle: suspension in saline): 6 % of control

Structure (SMILES): C1CCC2[N-]CC3CCCCC3[N-]CC3CCCCC3[N-]CC3CCCCC3[N-]CC2C1.[Cu] (configuration not stated)
- T/C [6]: 71 % of control
- T/C [7]: 99 % of control
- T/C [8]: 80 % of control

Structure (SMILES): C=CCNc1nc2c(s1)CCc1cc(OC)c(OC)cc1-2
- T/C [1]: 65 % of control
- T/C [2]: 44 % of control
- T/C (endpoint: median tumor weight (est.), dose: 50.0 mg/kg/injection, schedule: Q07DX005 (ip), vehicle: saline with Tween-80): 55 % of control
- T/C [4]: 74 % of control
- T/C (endpoint: median tumor weight (est.), dose: 200.0 mg/kg/injection, schedule: Q07DX005 (ip), vehicle: saline with Tween-80): 81 % of control

Structure (SMILES): O=C1C(=O)c2ccccc2C(O)=C1CC=C(Cl)Cl
- T/C [6]: 112 % of control
- T/C [7]: 52 % of control
- T/C [8]: 99 % of control
- T/C (endpoint: median tumor weight (est.), dose: 50.0 mg/kg/injection, schedule: Q07DX005 (ip), vehicle: Klucel (hydroxypropylcellulose) (HPC)): 93 % of control
- T/C (endpoint: median tumor weight (est.), dose: 100.0 mg/kg/injection, schedule: Q07DX005 (ip), vehicle: Klucel (hydroxypropylcellulose) (HPC)): 61 % of control

Structure (SMILES): COc1ccc2c(NCCCCCCCCNc3c4ccccc4nc4cc(OC)ccc34)c3ccccc3nc2c1
- T/C (endpoint: median tumor weight (est.), dose: 0.47 mg/kg/injection, schedule: Q07DX005 (ip), vehicle: other): 42 % of control
- T/C (endpoint: median tumor weight (est.), dose: 0.94 mg/kg/injection, schedule: Q07DX005 (ip), vehicle: other): 63 % of control
- T/C (endpoint: median tumor weight (est.), dose: 1.87 mg/kg/injection, schedule: Q07DX005 (ip), vehicle: other): 152 % of control
- T/C (endpoint: median tumor weight (est.), dose: 1.88 mg/kg/injection, schedule: Q07DX005 (ip), vehicle: other): 50 % of control
- T/C (endpoint: median tumor weight (est.), dose: 3.75 mg/kg/injection, schedule: Q07DX005 (ip), vehicle: other): 53 % of control
- T/C (endpoint: median tumor weight (est.), dose: 7.5 mg/kg/injection, schedule: Q07DX005 (ip), vehicle: other): 36 % of control

Structure (SMILES): Cc1c2oc3c(C)ccc(C(=O)NC4C(=O)NC(C(C)C)C(=O)N5CCCC5C(=O)N(C)CC(=O)N(C)C(C(C)C)C(=O)OC4C)c3nc-2c(C(=O)NC2C(=O)NC(C(C)C)C(=O)N3CCC3C(=O)N(C)CC(=O)N(C)C(C(C)C)C(=O)OC2C)c(N)c1=O (configuration not stated) (I: TV[Aze][Sar][NMeV] / II: TVP[Sar][NMeV]; ester I:1-I:C, II:1-II:C; linker I:N-II:N via Actinocin(1to9); configuration not given here)
- T/C (endpoint: median tumor weight (est.), dose: 300.0 micrograms/kg/injection, schedule: Q07DX005 (ip), vehicle: saline + alcohol): 34 % of control and 44 % of control
- T/C (endpoint: median tumor weight (est.), dose: 600.0 micrograms/kg/injection, schedule: Q07DX005 (ip), vehicle: saline + alcohol): 2 % of control

Structure (SMILES): O/N=C/c1ccccc1O.O/N=C/c1ccccc1O.[Cu]
- T/C (endpoint: median tumor weight change, dose: 31.25 mg/kg/injection, schedule: Q01DX001 (ip), vehicle: saline with Tween-80): 90 % of control
- T/C (endpoint: median tumor weight change, dose: 62.5 mg/kg/injection, schedule: Q01DX001 (ip), vehicle: saline with Tween-80): 59 % of control

Structure (SMILES): c1cc(-c2cc3ccc(C4=NCCN4)cc3[nH]2)ccc1C1=NCCN1
- T/C (endpoint: median tumor weight (est.), dose: 6.25 mg/kg/injection, schedule: Q07DX005 (ip), vehicle: suspension in saline): 103 % of control
- T/C (endpoint: median tumor weight (est.), dose: 12.5 mg/kg/injection, schedule: Q07DX005 (ip), vehicle: suspension in saline): 60 % of control
- T/C [3]: 45 % of control
- T/C [5]: 164 % of control
- T/C (endpoint: median tumor weight change, dose: 62.0 mg/kg/injection, schedule: Q01DX001 (ip), vehicle: suspension in saline): 99 % of control

Structure (SMILES): C=C(C)C(=O)OC1C/C(CO)=C\C(O)C/C(C)=C/C2OC(=O)C(=C)C21 (configuration not stated)
- T/C (endpoint: median tumor weight change, dose: 12.0 mg/kg/injection, schedule: Q01DX001 (ip), vehicle: saline + alcohol): 86 % of control
- T/C (endpoint: median tumor weight change, dose: 25.0 mg/kg/injection, schedule: Q01DX001 (ip), vehicle: saline + alcohol): 49 % of control
- T/C (endpoint: median tumor weight change, dose: 50.0 mg/kg/injection, schedule: Q01DX001 (ip), vehicle: saline + alcohol): 69 % of control
- T/C (endpoint: median tumor weight change, dose: 100.0 mg/kg/injection, schedule: Q01DX001 (ip), vehicle: saline + alcohol): 60 % of control
